Assay results published in publication PMC9585585, “Discovery of Small-Molecule Allosteric Inhibitors of PfATC as Antimalarials” (Journal of the American Chemical Society, 2022).
pEC50, pIC50: −log10 of the molar value.

Legend:
PfATC = PfATC (Plasmodium falciparum, UniProt A0A5K1K910); assay: biochemical; conditions: in vitro activity assay, PfATC 50 nM, 2 mM CP, 1 mM aspartate; read-out: PfATC IC50
Protocol: Following washing with Lysis buffer
Excess imidazole was removed and the His-tag was cleaved
400Then, the sample was loaded onto a 5 ml HiTrap SP HP column (GE Healthcare, USA) and
410PfATC activity assay. Enzymatic reactions were performed in a total volume of 150 µL in 50 mM
Small-molecule dose-response curves were
The reactions were initiated by adding CP and quenched after 10 min with
After plates were sealed with transparent sealing
(§1) 420tape to prevent evaporation and incubated overnight in the dark place at room temperature. After
Analyses were performed using
The enzymatic assay was performed as described herein above for
Briefly, the reaction was carried out at room
The reaction was initiated by
Then the plate was covered by sealing
(§2) 430tape and kept in dark place at room temperature and then heated to 95 °C for 15min in dark and kept

HsATC = target: T1, HsATC (Homo sapiens, UniProt P27708); assay: HsATC activity assay; assay type: biochemical; conditions: in vitro activity assay, 10 mM L-aspartate, 5 mM carbamoyl phosphate; read-out: HsATC IC50
T1 construct: ATCase domain of CAD; made in house; host or cells: E. coli BL21 star
T1 sequence (P27708 1918-2225 limits assumed): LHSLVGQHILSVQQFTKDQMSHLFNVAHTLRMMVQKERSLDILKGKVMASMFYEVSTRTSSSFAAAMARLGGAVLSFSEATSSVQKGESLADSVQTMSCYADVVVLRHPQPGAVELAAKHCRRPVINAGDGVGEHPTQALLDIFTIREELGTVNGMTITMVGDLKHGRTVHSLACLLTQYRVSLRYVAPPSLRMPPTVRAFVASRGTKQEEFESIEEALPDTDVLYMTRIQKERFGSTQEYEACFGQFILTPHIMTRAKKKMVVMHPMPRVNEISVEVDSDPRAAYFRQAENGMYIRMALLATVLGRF
Protocol: 417100μL of stop mix (two volumes of Antipyrine (26.5 mM 2,3-Dimethyl-1-phenyl-3-pyrazolin-5-
418one in 50% (v/v) sulfuric acid) and one volume of 2,3-Butanedione monoxime (80 mM 2,3-
419Butanedione monoxime in 5% (v/v) acetic acid). After plates were sealed with transparent sealing
as §1
421incubation, the plates were heated at 95 °C for 15 min in dark place, and kept for 30 min before
422measuring at 466 nm suing a Synergy H1 Hybrid Reader (BioTek). Analyses were performed using
423Microsoft Excel and Graph Pad Prism.
424HsATC activity assay. The enzymatic assay was performed as described herein above for
425enzymatic assay of PfATC with minor modifications. Briefly, the reaction was carried out at room
426temperature in a total volume of 150 μl of 10 mM L-aspartate and 5 mM carbamoyl phosphate
427saturated substrate solution in 50 mM Tris-Acetate buffer pH 8.3. hsATC was pre-incubated with
428inhibitor and L-Asp for 10 min at room temperature on a shaker. The reaction was initiated by
429adding CP and stopped after 5 min with […] color mix. Then the plate was covered by sealing
as §2
431the plate in the dark for another 30 min before measuring the absorbance at 466 nm suing a Synergy
432H1 Hybrid Reader (BioTek). […]

P. falciparum 3D7 = assay: Growth-inhibition assay of P. falciparum (SYBR Green I); assay type: cell-based, Plasmodium falciparum; conditions: P. falciparum 3D7, 96 h; read-out: EC50 against blood stage 3D7 cultures
Protocol: 488Cell culture and growth-inhibition assay of P. falciparum. P. falciparum 3D7 parasites
489(Wellcome Trust Dundee) were maintained in continuous culture at 37 °C and an atmosphere
490consisting of 90% N 2, 5% O2, and 5% CO2 as described previously 30 with modifications.31
491Parasites were maintained in 25 mM 4-(2-hydroxyethyl)-1-piperazineethanesulfonic acid (HEPES)
492and 11.9 mM sodium bicarbonate buffered RPMI 1640 medium supplemented with D-glucose
493(11 mM), hypoxanthine, AlbuMAX-I (0.5% w/v), and 10 µg/mL gentamicin. 0+ blood was
494provided by “Hospital Novo Atibaia” (Brazil) in agreement with the ethics committee at ICB-USP.
495Compounds were tested for their inhibitory effect against P. falciparum 3D7 conducting SYBR
496Green I (Invitrogen) drug assays as reported. 32, 33 Briefly, two-fold serial dilutions of compounds
497were prepared in 96-well plates starting from 100 and 20 µM in technical triplicate and incubated
498for 96 h under normal growth conditions using an initial parasitemia of 0.5% and a hematocrit of
4992% in a volume of 100 µL per well. Parasite proliferation was measured by quantifying DNA via
500SYBR Green I emitted fluorescence in the wells after addition of 100 µL lysis buffer supplemented
501with SYBR Green I (0.02% v/v) and incubation for 1 h at room temperature in the dark.
502Fluorescence was quantified using a CLARIOstar plate reader (BMG Labtech, Germany) at
503excitation and emission wavelength bands of 485 (± 9) and 530 (± 12) nm, respectively. Focal and
504gain adjustment was performed using the negative controls (highest expected fluorescence signal).
505Data was acquired via the CLARIOstar (V5.20) and MARS software, manually normalized, and
506plotted using the nonlinear regression curve fit implemented in GraphPad Prism as described below
507in more detail. Non-treated parasites, highest solvent concentration on parasites, and highest drug
508concentration in medium were used as controls for maximal growth, solvent control, and native
509drug fluorescence, respectively.
511Nonlinear regression fit and analysis of dose-response drug assays. Nonlinear regression as
512implemented in GraphPad Prism 8.4.3 (log(inhibitor) vs. response – Variable slope (four
513parameters)) was used to fit the measured data to interpolate the IC 50 value from the curve. No
514specific model was applied. Data was pre-processed by min-max-scaling according to the
517where y is the fluorescence signal in each well, y minimum the background fluorescence, and ymaximum
518the highest measured fluorescence signal in the untreated wells. Drug concentrations (in µM) were
519transformed to the log(10)of the values. Means of each independent experiment were plotted as
520individual values, and the SD of the mean from the means shown as error bars. The test for
521homoscedasticity was performed to confirm if no weighting of values was appropriate.

malarial parasite = system: malarial parasite; parameters: method as in PMID 32129597; conditions: cited from earlier work

Chain of PfATC (A0A5K1K910 entry or part of it): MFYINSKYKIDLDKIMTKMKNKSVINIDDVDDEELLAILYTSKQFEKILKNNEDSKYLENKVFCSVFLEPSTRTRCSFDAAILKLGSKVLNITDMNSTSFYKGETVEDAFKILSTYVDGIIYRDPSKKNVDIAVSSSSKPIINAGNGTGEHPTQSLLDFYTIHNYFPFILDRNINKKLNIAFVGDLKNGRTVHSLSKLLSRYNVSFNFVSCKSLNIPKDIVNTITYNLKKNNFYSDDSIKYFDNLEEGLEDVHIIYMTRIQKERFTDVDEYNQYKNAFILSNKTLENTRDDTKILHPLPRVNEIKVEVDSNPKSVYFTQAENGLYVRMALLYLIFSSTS

Row | Compound | pIC50 (PfATC) | pIC50 (HsATC) | pEC50 (P. falciparum 3D7) | inhibitory effects in ex vivo experiments (malarial parasite)
1 | COc1ccccc1CCNC(=O)c1cc(-c2ccccc2)sc1NC(=O)OC(C)(C)C [BDA-18] | 5.88 | 6.59 | 5.73 | –
2 | O=C(O)C[C@H](NC(=O)CP(=O)(O)O)C(=O)O [PALA, N-(phosphonoacetyl)-L-aspartate] | – | – | – | no inhibitory effects
3 | CC(C)(C)OC(=O)Nc1sc(-c2ccccc2)cc1C(=O)NCCc1ccc(Br)cc1 [BDA-22] | 6.33 | 6.24 | 5.54 | –
4 | CC(C)(C)OC(=O)Nc1sc(-c2ccc3c(c2)OCO3)cc1C(=O)NCCc1ccc(O)cc1 [BDA-41] | 6.17 | 7.54 | – | –

Further molecules by rising pIC50 (PfATC), results first:

Row | pIC50 (PfATC) | pIC50 (HsATC) | pEC50 (P. falciparum 3D7) | Compound | inhibitory effects in ex vivo experiments (malarial parasite)
5 | 5.22 | 6.06 | 5.71 | CC(C)(C)OC(=O)Nc1sc(-c2ccccc2)cc1C(=O)NCC(O)c1ccccc1 (stereo not shown) [BDA-16] | –
6 | 5.39 | 6.17 | 5.63 | CC(C)CCNc1sc(-c2ccccc2)cc1C(=O)NCCc1ccc(O)cc1 [BDA-19] | –
7 | 5.98 | 5.99 | – | COC(=O)c1cc(-c2ccc3c(c2)OCCO3)sc1NC(=O)OC(C)(C)C [BDA-69] | –
8 | 6.26 | 6.21 | 5.62 | CC(C)(C)OC(=O)Nc1sc(-c2ccccc2)cc1C(=O)NCCc1ccc(C(F)(F)F)cc1 [BDA-21] | –
9 | 6.80 | 6.18 | – | CC(C)CCNc1sc(-c2ccccc2)cc1C(=O)NCCc1ccccc1 [BDA-12] | –
